Results taken from patent publication EP2435019B1, “DODECA-2E,4E-DIENE AMIDES AND THEIR USE AS MEDICAMENTS AND COSMETICS” (Dr. August Wolff GmbH & Co. KG Arzneimittel, priority 2009, dated 2010).
Where two headings read alike, the source gives them in different places.

Experiments:
Anandamide transport = Anandamide transport (human) cellular functional assay (assay F); format: cell-based; settings: human U-937 cells, 0.1 µM [3H]-Anandamide, 20 min (assay F)
Experimental: Anandamide transport is determined using human U-937 cells as receptor source. [3H]-Anandamide (0.1 Ci/mmol), final concentration 0.1 µM is used as substrate. AM-404 is used as reference compound. Reactions are carried out in KRH buffer (pH 7.4) at 37°C for 20 min. The reaction is terminated by rapid vacuum filtration onto glass fiber filters. Radioactivity trapped onto filters is determined and compared to control values in order to ascertain any interactions of test compound with anandamide uptake (Hiiliard C.J. The movement of N-arachidonylethanolamide (anandamide) across cellular membranes. Chem. Physics Lipids. 2008;108:123-134, with modifications).

[1] = target: T1, human recombinant Fatty acid amide hydrolase (Homo sapiens, UniProt O00519); test: Inhibition of human recombinant FAAH, fluorometric method (assay G); format: biochemical; settings: human recombinant enzyme, AMC-anandamide substrate (assay G)
T1 sequence (O00519 1-579): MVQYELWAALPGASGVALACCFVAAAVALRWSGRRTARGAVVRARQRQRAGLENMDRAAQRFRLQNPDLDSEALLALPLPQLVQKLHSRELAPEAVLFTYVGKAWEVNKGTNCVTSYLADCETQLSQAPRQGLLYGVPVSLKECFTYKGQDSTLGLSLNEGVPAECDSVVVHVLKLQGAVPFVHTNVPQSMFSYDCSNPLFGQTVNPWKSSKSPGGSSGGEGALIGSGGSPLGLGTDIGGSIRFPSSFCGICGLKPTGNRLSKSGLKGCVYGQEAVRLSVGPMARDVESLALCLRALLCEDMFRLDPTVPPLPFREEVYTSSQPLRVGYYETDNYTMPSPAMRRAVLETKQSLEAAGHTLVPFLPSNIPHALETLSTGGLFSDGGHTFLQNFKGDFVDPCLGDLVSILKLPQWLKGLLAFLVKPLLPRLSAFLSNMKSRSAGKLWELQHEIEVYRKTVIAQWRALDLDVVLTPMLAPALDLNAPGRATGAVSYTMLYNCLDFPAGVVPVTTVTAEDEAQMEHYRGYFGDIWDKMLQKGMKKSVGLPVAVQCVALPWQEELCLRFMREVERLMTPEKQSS
Experimental: FAAH activity is measured using the modified method described by Omeir et al., Arachidonoyl ethanolamide-[1,2-14C] as a substrate for anandamide amidase. Life Sci. 1995;56(23-24):1999-2005. Human recombinant enzyme is preincubated with reference compound (methylarachidonlyfluorophosphonate, MAFP) and test compounds for 30 min at room temperature in 50 mM Tris containing 1 mM EDTA and 0.1% fatty acid free BSA (pH 8.0). Substrate (7-amino-4-methyl coumarin-arachidonamide, AMC-anandamide) is then added and incubated for 30 min at room temperature. The reaction is stopped by the addition of 2.5 µl of 10 µM URB597. Released 7-amino-4-methyl coumarin (AMC) is detected by fluorometry in order to ascertain any interactions of test compounds with the FAAH enzyme.

NO2^- production = test: NO2- production in LPS-stimulated human macrophages (Griess reagent); format: cell-based; settings: Figure 5; LPS 500 ng/ml; 5 µM for 18 h
Experimental: • Figure 1: AEA re-uptake inhibition of 2E,4E-dieneamides 1 and 9 into human primary monocytes and U937 cells. […] Data are mean values ± SEM of 3 independent experiments in a sigmoidal dose-response curve. • Figure 2: Concentration-dependent effects of 4 and 5 on FAAH activity. […] The maximal inhibition (32%) of 5 was measured at 1 µM. Data are mean values ± SEM of 3 independent experiments. • Figure 3: Effects of low nM concentrations of N-alkylamide 7 on FAAH activity alone and in combination with the FAAH inhibitor URB597. […] Data are mean values ± SEM of 3 independent experiments. • Figure 4: 1 and 9 inhibit LPS-induced TNF-alpha release into culture medium (measured by ELISA). Human macrophages (10^6 cells) were stimulated with LPS (500 ng/ml) and treated with UCM707 and/or compounds 1 and 9 at 5 µM for 18 h. N = 3 ± SEM. • Figure 5: UCM707 (positive control) and compounds 1 and 9 diminish NO2^- production. Human macrophages (10^6 cells) were stimulated with LPS (500 ng/ml) and treated with UCM707 and/or compounds 1 and 9 at 5 µM for 18 h. Culture supernatants were assayed for nitrite levels, using the Griess reagent as a reflection of NO production. Results are the mean ± SEM of four independent experiments performed in duplicate • Figure 6: In CB receptor expressing human HaCaT keratinocytes (10^6 cells) UCM707 (control) 1 and 9 like the endocannabinoid anandamide (each 5 µM) inhibited tolerogen (10 µg/ml) induced chemokine IL-8 (6h stimulation and incubation). N = 3 ± SEM.

CB2 = CB2 (Homo sapiens, UniProt P34972); test: Radioligand displacement assay on CB2 receptor; format: binding; design: purchased Perkin Elmer RBXCB2M
Chain of CB2 (P34972 whole entry): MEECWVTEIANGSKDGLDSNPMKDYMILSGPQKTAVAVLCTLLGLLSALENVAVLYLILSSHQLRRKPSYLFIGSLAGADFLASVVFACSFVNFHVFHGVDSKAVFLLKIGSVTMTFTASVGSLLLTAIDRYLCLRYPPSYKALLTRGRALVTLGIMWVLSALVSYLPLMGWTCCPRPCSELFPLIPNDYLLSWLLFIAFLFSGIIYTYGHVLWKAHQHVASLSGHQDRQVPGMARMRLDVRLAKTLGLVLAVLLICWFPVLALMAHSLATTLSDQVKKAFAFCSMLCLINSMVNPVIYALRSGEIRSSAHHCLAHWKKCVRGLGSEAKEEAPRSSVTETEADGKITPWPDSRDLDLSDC
Experimental: For the CB1 receptor, binding experiments were performed in the presence of 0.39 nM of the radioligand [^3H]CP55,940 (168 Ci/mmol) (Perkin Elmer, Waltham, MA, US) at 30°C in siliconized glass vials together with 7.16 µg of membrane recombinantly over-expressing CB1 (No. RBHCB1M, Perkin Elmer, Waltham, MA, US), which was resuspended in 0.2 mL (final volume) binding-buffer (50 mM TRIS-HCl, 2.5 mM EGTA, 5 mM MgCl2, 0.5 mg/mL fatty acid free BSA, pH 7.4). Test compounds were present at varying concentrations and the nonspecific binding of the radioligand was determined in the presence of 10 µM CP55,940 (Tocris Cookson Ltd., Bristol, UK). After 1.5 h incubation, the suspension was rapidly filtered through 0.05% polyethylenimine pre-soaked GF/C glass fiber filters on a 96-well cell harvester and washed nine times with 0.5 mL ice-cold washing-buffer (50 mM TRIS-HCl, 2.5 mM EGTA, 5 mM MgCl2, 2% BSA, pH 7.4). Radioactivity on filters was measured with a Beckman LS 6500 scintillation counter in 3 mL Ultima Gold scintillation liquid (Perkin Elmer, Waltham, MA, US). Data collected from three independent experiments performed in triplicates were normalized between 100% and 0% specific binding for [^3H]CP55,940. […] Derived from the dissociation constant (KD) of [^3H]CP55,940 and the concentration-dependent displacement (IC50 value), inhibition constants (Ki) of competitor compounds were calculated using the Cheng-Prusoff equation [Ki = IC50/(1+ L/KD)].
For CB2-receptor binding studies 3.8 µg of membrane recombinantly over-expressing CB2 (No. RBXCB2M, Perkin Elmer, Waltham, MA, US) were resuspended in 0.6 mL binding buffer (see above) together with 0.11 nM of the radioligand [^3H]CP55,940. The CB2-binding assay was conducted in the same manner as for CB1.

Compound | AEAT inhibition at 1 µM (Anandamide transport) | FAAH inhibition at 1 µM [1] | NO2^- production (NO2^- production) | Ki (CB2) | Ki (CB2; displacement of 0.11 nM [3H]CP55,940, membrane recombinantly over-expressing CB2, read-out: Receptor affinity Ki CB2)
CCCCCCC/C=C/C=C/C(=O)NCCO [Example 1, (2E,4E)-N-(2-hydroxyethyl)dodeca-2,4-diene amide] | 28 % of control | 9 % of control | diminish | > 20 µM | 
CCCCCCC/C=C/C=C/C(=O)NCCc1cccc(OC)c1 [Example 9, (2E,4E)-N-(3-methoxyphenethyl)dodeca-2,4-diene amide] | 34 % of control | 16 % of control | diminish |  | 9.44 ± 0.889 µM
